Each molecule was assayed against T1, Hexokinase-1 (Homo sapiens, UniProt P19367) (assay: hexokinase 1 activators, dose response, selectivity assay for HKDC1 activator project, biochemical (AID 504762)).
T1 sequence (P19367 whole entry): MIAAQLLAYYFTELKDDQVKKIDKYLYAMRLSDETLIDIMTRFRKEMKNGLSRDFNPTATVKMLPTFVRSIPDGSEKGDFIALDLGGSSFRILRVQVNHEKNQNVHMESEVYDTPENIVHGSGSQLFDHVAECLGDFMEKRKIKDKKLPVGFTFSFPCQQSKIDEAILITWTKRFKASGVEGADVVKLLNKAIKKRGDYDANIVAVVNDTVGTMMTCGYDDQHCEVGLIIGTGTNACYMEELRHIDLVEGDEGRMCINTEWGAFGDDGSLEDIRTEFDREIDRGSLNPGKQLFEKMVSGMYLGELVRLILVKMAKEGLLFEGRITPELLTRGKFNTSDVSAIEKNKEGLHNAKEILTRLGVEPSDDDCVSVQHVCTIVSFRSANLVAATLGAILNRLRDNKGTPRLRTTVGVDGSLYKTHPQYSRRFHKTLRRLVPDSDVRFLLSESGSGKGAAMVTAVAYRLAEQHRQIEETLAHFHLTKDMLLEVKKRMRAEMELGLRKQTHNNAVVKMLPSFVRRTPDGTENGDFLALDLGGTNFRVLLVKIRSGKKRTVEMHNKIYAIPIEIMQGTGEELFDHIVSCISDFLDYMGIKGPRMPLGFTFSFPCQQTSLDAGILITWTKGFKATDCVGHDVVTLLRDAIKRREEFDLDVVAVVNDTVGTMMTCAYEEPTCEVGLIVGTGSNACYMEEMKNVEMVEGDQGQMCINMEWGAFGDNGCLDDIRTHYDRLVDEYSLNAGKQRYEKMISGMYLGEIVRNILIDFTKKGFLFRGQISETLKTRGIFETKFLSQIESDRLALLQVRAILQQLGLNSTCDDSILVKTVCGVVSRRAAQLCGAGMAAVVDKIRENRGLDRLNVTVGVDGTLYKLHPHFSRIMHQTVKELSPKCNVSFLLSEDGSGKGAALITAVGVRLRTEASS

| SMILES | EC50 |
| --- | --- |
| Nn1cnnc1N=NCc1cc(Br)cc(Br)c1O | 42.3 µM |
| CC(N=Nc1nc2ccccc2o1)c1cc2ccccc2cn1 (centres undefined) | > 80 µM |
| CCCOC1=CC(=O)C(C=NNC(=S)Nc2ccccc2[N+](=O)[O-])C=C1 (centres undefined) [1-(2-nitrophenyl)-3-[[(E)-(6-oxo-4-propoxy-1-cyclohexa-2,4-dienylidene)methyl]amino]thiourea] | > 80 µM |
| Cc1ccc2c(C)c3ccc4ccccc4c3c[n+]2c1 [MLS002701915] | 5.2 µM |

Continued, values first:

| EC50 | SMILES |
| --- | --- |
| > 80 µM | CC(C)(C)c1nnc(N=NCc2cc(Br)ccc2O)n(N)c1=O [4-azanyl-3-[2-[(E)-(3-bromanyl-6-oxidanylidene-cyclohexa-2,4-dien-1-ylidene)methyl]hydrazinyl]-6-tert-butyl-1,2,4-triazin-5-one] |
| > 80 µM | Cc1[nH]n(-c2ccccc2)c(=O)c1CN=Nc1nncc(-c2ccccc2)n1 [(4E)-5-methyl-2-phenyl-4-[[(5-phenyl-1,2,4-triazin-3-yl)hydrazo]methylidene]-3-pyrazolone] |
| 37.1 µM | O=C1C(=C2C(=O)c3ccccc3C2=O)Nc2ccccc21 [MLS000071738] |
| 30.8 µM | Oc1c(Cl)c(N=Cc2cccnc2)c(O)c2ccccc12 [MLS001195521] |
| 34.1 µM | CC(=O)Oc1cccc2c(O)c3c(c(O)c12)CC=CC3OC(C)=O (centres undefined) [SMR001574207] |
